Data as given in US20230192626A1 (Baylor College of Medicine, priority 2020, published 2023).
pIC50: −log10 of the molar value.

target: T1, Human sEH (hsEH) (Homo sapiens, UniProt P34913); experiment: fluorescence-based sEH biochemical inhibition assay (PHOME substrate); details: Table 1; hsEH 5 nM, PHOME 50 μM, 30° C.
T1 construct: purchased Cayman Chemicals
T1 sequence (P34913 1-555): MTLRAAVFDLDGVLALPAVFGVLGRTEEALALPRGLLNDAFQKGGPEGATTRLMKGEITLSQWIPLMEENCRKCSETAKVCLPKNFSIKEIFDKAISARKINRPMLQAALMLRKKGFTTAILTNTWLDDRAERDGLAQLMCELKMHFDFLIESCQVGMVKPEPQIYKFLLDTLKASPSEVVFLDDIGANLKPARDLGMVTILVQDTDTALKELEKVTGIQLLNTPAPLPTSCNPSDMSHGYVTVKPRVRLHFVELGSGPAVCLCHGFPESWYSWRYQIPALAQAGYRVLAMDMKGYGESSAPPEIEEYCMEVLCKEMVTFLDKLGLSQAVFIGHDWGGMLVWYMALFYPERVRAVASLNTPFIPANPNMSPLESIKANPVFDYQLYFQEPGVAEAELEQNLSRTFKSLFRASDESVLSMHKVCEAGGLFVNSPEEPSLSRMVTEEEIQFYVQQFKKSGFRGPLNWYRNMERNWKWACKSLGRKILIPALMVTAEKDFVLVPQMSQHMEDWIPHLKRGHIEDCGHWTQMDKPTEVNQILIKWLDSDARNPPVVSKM
Experimental: The benzimidazole-based compounds synthesized according to Example 1 were measured for activity. Using a fluorescence-based sEH biochemical inhibition assay, the IC50 value was measured for each benzimidazole-based compound. Human sEH (hsEH) and its substrate PHOME were purchased from Cayman Chemicals. IC50 values of hsEH inhibitors were determined by fluorescence. IC50 is defined as the concentration of the inhibitor that blocks 50% of the enzymatic activity. To a 96-well plate containing 10 μL enzyme (5 nM in water), 60 μL of H2O and 10 μL BisTris-HCl buffer (25 mM, pH 7.0) were added inhibitors with different concentrations. The mixture was incubated for 5 min at 30° C. prior to addition of 10 μL of PHOME substrate (50 μM). Fluorescence were measured at 30° C. with an excitation wavelength of 330 nm and an emission wavelength of 465 nm using a BioTek H1 plate reader. The IC50 values were calculated by non-linear regression fitting. The curve was generated from at least three separate runs, each in duplicates. Results are given as means and standard deviations. In Table 1, an IC50 value less than or equal to 1 μM is indicated as an “A.” an IC50 value from greater than 1 μM to less than 10 μM is indicated as a “B′” and an IC50 value of greater than or equal to 10 μM is indicated as a “C.”
Additional benzimidazole-based compounds as described herein were measured for activity according to the procedure outlined in Example 2. Briefly, using a fluorescence-based sEH biochemical inhibition assay, the IC50 value was measured for each benzimidazole-based compound.

Compound | pIC50
COc1cc2nc(-c3ccc(C(F)(F)F)cc3)[nH]c2cc1OC [Compound 42, 5,6-dimethoxy-2-(4-(trifluoromethyl)phenyl)-1H-benzo[d]imidazole] | 5.00 to 6.00
CC(=O)Nc1ccc(-c2nc3cc(F)c(F)cc3[nH]2)cc1 [Compound 47, N-(4-(5,6-difluoro-1H-benzo[d]imidazol-2-yl)phenyl)acetamide] | ≤ 5.00
Fc1ccc2[nH]c(-c3ccc(-c4ccccc4)cc3)nc2c1F [Compound 49, 2-([1,1′-biphenyl]-4-yl)-4,5-difluoro-1H-benzo[d]imidazole] | ≤ 5.00
Fc1cc2nc(-c3ccnc(C(F)(F)F)c3)[nH]c2cc1F [Compound 50, 5,6-difluoro-2-(2-(trifluoromethyl)pyridin-4-yl)-1H-benzo[d]imidazole] | 5.00 to 6.00
O=C(O)c1ccc(-c2nc3cc(F)c(F)cc3[nH]2)cc1 [Compound 56] | ≥ 6.00
COC(=O)c1ccc(-c2nc3cc(F)c(F)cc3[nH]2)cc1 [Compound 57, Methyl 4-(5,6-difluoro-1H-benzo[d]imidazol-2-yl)benzoate] | ≤ 5.00
Fc1cc2nc(-c3ccc(-c4nnco4)cc3)[nH]c2cc1F [Compound 58, 2-(4-(5,6-difluoro-1H-benzo[d]imidazol-2-yl)phenyl)-1,3,4-oxadiazole] | ≤ 5.00
Fc1cc2nc(-c3ccc(-c4ccncc4)cc3)[nH]c2cc1F [Compound 59, 5,6-difluoro-2-(4-(pyridin-4-yl)phenyl)-1H-benzo[d]imidazole] | 5.00 to 6.00
Cc1noc(-c2ccc(-c3nc4cc(F)c(F)cc4[nH]3)cc2)n1 [Compound 60, 5-(4-(5,6-difluoro-1H-benzo[d]imidazol-2-yl)phenyl)-3-methyl-1,2,4-oxadiazole] | ≤ 5.00
Fc1cc2nc(-c3ccc(-c4nnn[nH]4)cc3)[nH]c2cc1F [Compound 61, 2-(4-(1H-tetrazol-5-yl)phenyl)-5,6-difluoro-1H-benzo[d]imidazole] | ≤ 5.00

Further lines, results first:

pIC50 | Compound
≥ 6.00 | Cc1ccc2[nH]c(-c3ccc(C(F)(F)F)cc3)nc2c1C [Compound 41, 4,5-dimethyl-2-(4-(trifluoromethyl)phenyl)-1H-benzo[d]imidazole]
≥ 6.00 | Fc1cc2nc(-c3ccc(C(F)(F)F)cc3)[nH]c2cc1Cl [Compound 43, 6-chloro-5-fluoro-2-(4-(trifluoromethyl)phenyl)-1H-benzo[d]imidazole]
≥ 6.00 | Fc1cc2nc(-c3ccc(C(F)(F)F)cc3)[nH]c2cc1Br [Compound 44, 6-bromo-5-fluoro-2-(4-(trifluoromethyl)phenyl)-1H-benzo[d]imidazole]
≥ 6.00 | Fc1cc2nc(-c3ccc(-c4ccccc4)cc3)[nH]c2cc1Br [Compound 45, 2-([1,1′-biphenyl]-4-yl)-6-bromo-5-fluoro-1H-benzo[d]imidazole]
≥ 6.00 | COc1ccc(-c2nc3cc(F)c(F)cc3[nH]2)cc1 [Compound 46, 5,6-difluoro-2-(4-methoxyphenyl)-1H-benzo[d]imidazole]
≥ 6.00 | Fc1ccc2[nH]c(-c3ccc(C(F)(F)F)cc3)nc2c1F [Compound 48, 4,5-difluoro-2-(4-(trifluoromethyl)phenyl)-1H-benzo[d]imidazole]
≥ 6.00 | Fc1ccc(Oc2ccc(-c3nc4cc(F)c(F)cc4[nH]3)cc2)cc1 [Compound 52, 5,6-difluoro-2-(4-(4-fluorophenoxy)phenyl)-1H-benzo[d]imidazole]
≥ 6.00 | Fc1cc2nc(-c3ccc(Oc4ccccc4)cc3)[nH]c2cc1F [Compound 53, 5,6-difluoro-2-(4-phenoxyphenyl)-1H-benzo[d]imidazole]
≥ 6.00 | N#Cc1ccc(-c2nc3cc(F)c(F)cc3[nH]2)cc1 [Compound 54, 4-(5,6-difluoro-1H-benzo[d]imidazol-2-yl)benzonitrile]
≥ 6.00 | O=c1[nH]nc(-c2ccc(-c3nc4cc(F)c(F)cc4[nH]3)cc2)o1 [Compound 55, 5-(4-(5,6-difluoro-1H-benzo[d]imidazol-2-yl)phenyl)-1,3,4-oxadiazol-2(3H)-one]
